Source: patent USRE49735E1 (BRISTOL-MYERS SQUIBB COMPANY, priority 2010, dated 2023)
“And” between values parts separate entries of the source, which are not always exact repeats. Equal values may be shown once.

These compounds were tested against human mGluR5A (Homo sapiens, UniProt P41594) (assay: mGluR5 FLIPR Assay). Details: positive modulator activity; HEK293 (ZF) cells with human mGluR5A and rat GLAST; Ca++ response to ~EC10 glutamate.
Format: cell-based

Sequence of human mGluR5A (P41594 21-1180 isoform P41594-2): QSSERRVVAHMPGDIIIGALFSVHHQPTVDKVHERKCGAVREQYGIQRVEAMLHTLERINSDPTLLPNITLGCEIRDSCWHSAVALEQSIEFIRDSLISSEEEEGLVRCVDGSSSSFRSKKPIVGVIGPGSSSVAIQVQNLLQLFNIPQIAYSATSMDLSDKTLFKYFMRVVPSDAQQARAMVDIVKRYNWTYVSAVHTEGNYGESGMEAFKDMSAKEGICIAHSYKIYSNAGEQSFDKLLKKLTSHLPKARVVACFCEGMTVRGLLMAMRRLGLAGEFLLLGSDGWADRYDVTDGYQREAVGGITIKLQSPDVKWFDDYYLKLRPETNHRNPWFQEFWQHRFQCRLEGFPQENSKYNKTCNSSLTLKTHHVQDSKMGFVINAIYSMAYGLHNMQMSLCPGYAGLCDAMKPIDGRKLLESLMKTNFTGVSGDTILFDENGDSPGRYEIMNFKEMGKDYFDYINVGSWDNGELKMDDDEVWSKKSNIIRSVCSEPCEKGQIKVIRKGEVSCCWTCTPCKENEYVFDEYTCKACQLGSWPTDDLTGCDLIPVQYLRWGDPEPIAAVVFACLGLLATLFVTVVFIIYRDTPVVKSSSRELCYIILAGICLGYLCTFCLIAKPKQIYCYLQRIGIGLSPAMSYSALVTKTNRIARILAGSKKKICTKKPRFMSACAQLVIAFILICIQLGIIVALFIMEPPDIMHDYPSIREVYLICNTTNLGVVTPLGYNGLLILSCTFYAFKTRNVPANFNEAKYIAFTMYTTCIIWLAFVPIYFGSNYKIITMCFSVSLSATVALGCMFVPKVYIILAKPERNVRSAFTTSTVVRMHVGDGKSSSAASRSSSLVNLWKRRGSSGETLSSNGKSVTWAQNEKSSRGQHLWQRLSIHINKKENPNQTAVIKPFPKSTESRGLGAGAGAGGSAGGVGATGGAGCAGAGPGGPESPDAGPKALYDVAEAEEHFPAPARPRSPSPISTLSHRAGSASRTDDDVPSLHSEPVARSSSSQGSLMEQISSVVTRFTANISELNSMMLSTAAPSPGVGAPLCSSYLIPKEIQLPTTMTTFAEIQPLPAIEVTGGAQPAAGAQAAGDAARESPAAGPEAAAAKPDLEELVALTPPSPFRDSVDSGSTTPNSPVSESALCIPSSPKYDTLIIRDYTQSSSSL

| Structure (SMILES) | EC50 |
| --- | --- |
| C[C@@]1(c2cccc(C#Cc3ccccc3)n2)NC(=O)O[C@@H]1c1ccccc1F (single isomer, unassigned) [Example 376] | 100 to 1000 nM |
| C[C@]1(c2cccc(C#Cc3ccccc3)n2)NC(=O)O[C@H]1c1ccccc1F (single isomer, unassigned) [Example 377] | > 1000 nM |
| C[C@]1(c2cccc(C#Cc3ccccc3)n2)NC(=O)O[C@@H]1c1ccccc1F (single isomer, unassigned) [Example 378] | < 100 nM |
| C[C@@]1(c2cccc(C#Cc3ccccc3)n2)NC(=O)O[C@H]1c1ccccc1F (single isomer, unassigned) [Example 379] | > 1000 nM |
| C[C@@]1(c2cncc(C#Cc3ccccc3)c2)NC(=O)O[C@H]1c1cc(F)ccc1F (single isomer, unassigned) [Example 406] | 100 to 1000 nM |
| C[C@]1(c2cncc(C#Cc3ccccc3)c2)NC(=O)O[C@@H]1c1cc(F)ccc1F (single isomer, unassigned) [Example 407] | < 100 nM |
| COc1cccc([C@@H]2OC(=O)N[C@H]2c2cccc(C#Cc3ccc(C(F)(F)F)cc3)c2)c1 (stereo in doubt) [Example 120, (4S,5S)-5-(3-methoxyphenyl)-4-(3-((4-(trifluoromethyl)phenyl)ethynyl)phenyl)oxazolidin-2-one] | > 1000 nM |
| O=C1N[C@H](c2ccnc(C#Cc3ccccc3)c2)[C@@H](c2ccccc2)O1 [Example 20, (4R,5R)-5-Phenyl-4-(2-(phenylethynyl)pyridin-4-yl)oxazolidin-2-one] | < 100 nM |
| O=C1N[C@H](c2ccnc(C#Cc3ccccn3)c2)[C@@H](c2ccccc2)O1 [Example 22, (4R,5R)-5-Phenyl-4-(2-(pyridin-2-ylethynyl)pyridin-4-yl)oxazolidin-2-one] | > 1000 nM |
| O=C1N[C@H](c2ccnc(C#Cc3cccnc3)c2)[C@@H](c2ccccc2)O1 [Example 23, (4R,5R)-5-Phenyl-4-(2-(pyridin-3-ylethynyl)pyridin-4-yl)oxazolidin-2-one] | < 100 nM |
| O=C1N[C@H](c2cncc(C#Cc3ccccn3)c2)[C@@H](c2cccc(F)c2)O1 [Example 34, (4R,5R)-5-(3-Fluorophenyl)-4-(5-(pyridin-2-ylethynyl)pyridin-3-yl)oxazolidin-2-one] | > 1000 nM |
| O=C1N[C@H](c2cncc(C#Cc3cccnc3)c2)[C@@H](c2cccc(F)c2)O1 [Example 35, (4R,5R)-5-(3-Fluorophenyl)-4-(5-(pyridin-3-ylethynyl)pyridin-3-yl)oxazolidin-2-one] | < 100 nM and 6.3 nM |
| COc1cccc([C@H]2OC(=O)N[C@@H]2c2cccc(C#Cc3cccnc3)c2)c1 [Example 46] | < 100 nM |
| COc1cncc(C#Cc2cccc([C@H]3NC(=O)O[C@@H]3c3cccc(OC)c3)c2)c1 [Example 49] | > 1000 nM |
| COc1cccc([C@H]2OC(=O)N[C@@H]2c2cccc(C#Cc3cncc(Cl)c3)c2)c1 [Example 50, (4R,5R)-4-(3-((5-Chloropyridin-3-yl)ethnyl)phenyl)-5-(3-methoxyphenyl)oxazolidin-2-one] | 100 to 1000 nM and 353 nM |
| COc1cccc([C@H]2OC(=O)N[C@@H]2c2cccc(C#Cc3ccncc3)c2)c1 [Example 51] | < 100 nM |
| COc1cccc([C@H]2OC(=O)N[C@@H]2c2cccc(C#Cc3csc(C)n3)c2)c1 [Example 52, (4R,5R)-5-(3-Methoxyphenyl)-4-(3-((2-methylthiazol-4-yl)ethnyl)phenyl)oxazolidin-2-one] | > 30000 nM |
| COc1cccc([C@H]2OC(=O)N[C@@H]2c2cccc(C#Cc3cccc(C)c3)c2)c1 [Example 54, (4R,5R)-5-(3-Methoxyphenyl)-4-(3-(m-tolylethnyl)phenyl)oxazolidin-2-one] | > 1000 nM |
| COc1cccc([C@H]2OC(=O)N[C@@H]2c2cccc(C#Cc3cccc(C#N)c3)c2)c1 [Example 55] | < 100 nM |
| COc1cccc([C@H]2OC(=O)N[C@@H]2c2cccc(C#Cc3ccnc(C#N)c3)c2)c1 [Example 56, 4-((3-((4R,5R)-5-(3-Methoxyphenyl)-2-oxooxazolidin-4-yl)phenyl)ethynyl)nicolinonitrile] | > 1000 nM |
| COc1cccc([C@H]2OC(=O)N[C@@H]2c2cccc(C#Cc3cccc(N(C)C)c3)c2)c1 [Example 58, (4R,5R)-4-(3-((3-(Dimethylamino)phenyl)ethnyl)phenyl)-5-(3-methoxyphenyl)oxazolidin-2-one] | > 30000 nM |
| COc1cccc(C#Cc2cccc([C@H]3NC(=O)O[C@@H]3c3cccc(OC)c3)c2)c1 [Example 59, (4R,5R)-5-(3-Methoxyphenyl)-4-(3-((3-methoxyphenyl)ethynyl)phenyl)oxazolidin-2-one] | < 100 nM |
| COc1cccc([C@H]2OC(=O)N[C@@H]2c2cccc(C#Cc3ncc[nH]3)c2)c1 [Example 62, (4R,5R)-4-(3-((1H-imidazol-2-yl)ethnyl)phenyl)-5-(3-methoxyphenyl)oxazolidin-2-one] | > 1000 nM |
| COc1cccc([C@H]2OC(=O)N[C@@H]2c2cccc(C#Cc3cnccn3)c2)c1 [Example 63, (4R,5R)-5-(3-Methoxyphenyl)-4-(3-(pyrazin-2-ylethynyl)phenyl)oxazolidin-2-one] | < 100 nM |
| COc1cccc([C@H]2OC(=O)N[C@@H]2c2cccc(C#Cc3ncccn3)c2)c1 [Example 64, (4R,5R)-5-(3-Methoxyphenyl)-4-(3-(pyrimidin-2-ylethynyl)phenyl)oxazolidin-2-one] | > 30000 nM |
| COc1cccc([C@H]2OC(=O)N[C@@H]2c2cccc(C#Cc3cncnc3)c2)c1 [Example 65, (4R,5R)-5-(3-Methoxyphenyl)-4-(3-(pyrimidin-5-ylethynyl)phenyl)oxazolidin-2-one] | 100 to 1000 nM and 139 nM |
| COc1cccc([C@H]2OC(=O)N[C@@H]2c2cccc(C#Cc3cscn3)c2)c1 [Example 68] | < 100 nM |
| COc1cccc([C@H]2OC(=O)N[C@@H]2c2cccc(C#Cc3ccc(C#N)nc3)c2)c1 [Example 70, 5-((3-((4R,5R)-5-(3-Methoxyphenyl)-2-oxazolidin-4-yl)phenyl)ethynyl)picolinonitrile] | > 1000 nM |
| COc1cccc([C@H]2OC(=O)N[C@@H]2c2cccc(C#Cc3ccc(OC)nc3)c2)c1 [Example 71, (4R,5R)-5-(3-Methoxyphenyl)-4-(3-((6-methoxypyridin-3-yl)ethynyl)phenyl)oxazolidin-2-one] | 100 to 1000 nM and 325 nM |

More lines, now with the values ahead:

| EC50 | Structure (SMILES) |
| --- | --- |
| > 1000 nM | COc1cccc([C@@H]2OC(=O)N[C@H]2c2cccc(C#Cc3ccccc3F)c2)c1 (stereo in doubt) [Example 122, (4S,5S)-4-(3-((2-fluorophenyl)ethynyl)phenyl)-5-(3-methoxyphenyl)oxazolidin-2-one] |
| < 100 nM and 39 nM | COc1cccc([C@H]2OC(=O)N[C@@H]2c2cccc(C#Cc3ccccc3)c2)c1 [Example 1, (+)-(4R,5R)-5-(3-Methoxyphenyl)-4-(3-(phenylethynyl)phenyl)oxazolidin-2-one] |
| > 30000 nM | COc1cccc([C@@H]2OC(=O)N[C@H]2c2cccc(C#Cc3ccccc3)c2)c1 [Example 2, (4S,5S)-5-(3-Methoxyphenyl)-4-(3-(phenylethynyl)phenyl)oxazolidin-2-one] |
| > 1000 nM | COc1cccc([C@H]2OC(=O)N[C@@H]2c2cccc(C#Cc3ccc(F)cc3)n2)c1 [Example 7, (4R,5R)-4-(6-((4-Fluorophenyl)ethynyl)pyridin-2-yl)-5-(3-methoxyphenyl)oxazolidin-2-one] |
| > 1000 nM | COc1cccc([C@H]2OC(=O)N[C@@H]2c2cccc(C#Cc3cccc(F)c3)n2)c1 [Example 8, (4R,5R)-4-(6-((3-Fluorophenyl)ethynyl)pyridin-2-yl)-5-(3-methoxyphenyl)oxazolidin-2-one] |
| > 1000 nM | COc1cccc([C@H]2OC(=O)N[C@@H]2c2cccc(C#Cc3ccccc3F)n2)c1 [Example 9, (4R,5R)-4-(6-((2-Fluorophenyl)ethynyl)pyridin-2-yl)-5-(3-methoxyphenyl)oxazolidin-2-one] |
| > 1000 nM | O=C1N[C@H](c2cccc(C#Cc3ccccc3F)n2)[C@@H](c2ccccc2)O1 [Example 12] |
| < 100 nM and 7.4 nM | COc1cccc([C@H]2OC(=O)N[C@@H]2c2cccc(C#Cc3ccccn3)c2)c1 [Example 47, (4R,5R)-5-(3-Methoxyphenyl)-4-(3-(pyridin-2-ylethynyl)phenyl)oxazolidin-2-one] |
| > 1000 nM | COc1cccc([C@H]2OC(=O)N[C@@H]2c2cccc(C#Cc3cccc(C)n3)c2)c1 [Example 48, (4R,5R)-5-(3-Methoxyphenyl)-4-(3-((6-methylpyridin-2-yl)ethnyl)phenyl)oxazolidin-2-one] |
| > 1000 nM | COc1cccc([C@H]2OC(=O)N[C@@H]2c2cccc(C#Cc3cccnc3C#N)c2)c1 [Example 53, 3-((3-((4R,5R)-5-(3-Methoxyphenyl)-2-oxooxazolidin-4-yl)phenyl)ethynyl)picolinonitrile] |
| > 30000 nM | COc1cccc([C@H]2OC(=O)N[C@@H]2c2cccc(C#Cc3ccnc(Cl)c3)c2)c1 [Example 57, (4R,5R)-4-(3-((2-Chloropyridin-4-yl)ethynyl)phenyl)-5-(3-methoxyphenyl)oxazolidin-2-one] |
| > 1000 nM | COc1cccc([C@H]2OC(=O)N[C@@H]2c2cccc(C#Cc3ccnc(C)c3)c2)c1 [Example 60, (4R,5R)-5-(3-Methoxyphenyl)-4-(3-((2-methylpyridin-4-yl)ethnyl)phenyl)oxazolidin-2-one] |
| < 100 nM | COc1cccc([C@H]2OC(=O)N[C@@H]2c2cccc(C#Cc3cccc(OC)n3)c2)c1 [Example 61] |
| 100 to 1000 nM | COc1cccc([C@H]2OC(=O)N[C@@H]2c2cccc(C#Cc3ccc4ccccc4n3)c2)c1 [Example 66, (4R,5R)-5-(3-Methoxyphenyl)-4-(3-(quinolin-2-ylethynyl)phenyl)oxazolidin-2-one] |
| > 1000 nM | COc1cccc([C@H]2OC(=O)N[C@@H]2c2cccc(C#Cc3cc4ccccc4cn3)c2)c1 [Example 67, (4R,5R)-4-(3-(Isoquinolin-3-ylethynyl)phenyl)-5-(3-methoxyphenyl)oxazolidin-2-one] |
| < 100 nM | COc1cccc([C@H]2OC(=O)N[C@@H]2c2cccc(C#Cc3ccc(F)nc3)c2)c1 [Example 69] |
| < 100 nM | COc1cccc([C@H]2OC(=O)N[C@@H]2c2cccc(C#Cc3cccc(F)n3)c2)c1 [Example 72, (4R,5R)-4-(3-((6-Fluoropyridin-2-yl)ethnyl)phenyl)-5-(3-methoxyphenyl)oxazolidin-2-one] |
